Laboratory results published in patent publication US10308683B2, “Bicyclic lipolantipeptide, preparation and use as antimicrobial agent” (priority 2015, dated 2019).

Tests used:
[1] = system: S. pneumoniae - ATCC 33400; settings: Table 2
Experimental: (§1) Methods for Dilution Antibacterial Susceptibility Tests for Bacteria That Grow Aerobically; Approved Standard—Tenth Edition (2015). Clinical and Laboratory Standards Institute Document M07-A10. • 2. Methods for Antimicrobial Susceptibility Testing of Anaerobic Bacteria; Approved Standard—Eighth Edition (2012). Clinical and Laboratory Standards Institute Document M11-A8. • 3. Antimycobacterial activity was determined as described in Journal of Clinical Microbiology (2009, 47:1773-1780) by Springer et al. Quantitative drug susceptibility testing of Mycobacterium tuberculosis by use of MGIT 960 and EpiCenter Instrumentation.

[2] = system: S. aureus - USA300; settings: Table 2
[3] = system: S. aureus - ATCC 13709 (Fully susceptible); experiment: MIC, CLSI dilution susceptibility test (aerobic); assay type: cell-based; settings: for Minimal Inhibitory Concentration (MIC): Table 2, S. aureus - ATCC 13709 (Fully susceptible)
Description: Clinical and Laboratory Standards Institute Document M07-A10. • 2. […] Clinical and Laboratory Standards Institute Document M11-A8. • 3.

[4] = system: S. aureus - ATCC 1683 (Methicillin resistant); settings: for Minimal Inhibitory Concentration (MIC): Table 2, S. aureus - ATCC 1683 (Methicillin resistant)
[5] = system: S. oralis 39151368; settings: Table 3, Gram-positive aerobe
Experimental: as §1

[6] = system: S. epidermidis 37361192 (Methicillin sensitive); settings: Table 3, Gram-positive aerobe
Experimental: as §1

[7] = system: S. pneumoniae R119 (R6 like) (Penicillin sensitive); settings: Table 3, Gram-positive aerobe
Experimental: as §1

[8] = system: P. acnes 1201; settings: Table 3, Gram-positive anaerobe
Experimental: as §1

[9] = system: C. difficile ATCC 700057; settings: Table 3, Gram-positive anaerobe
Experimental: as §1

[10] = system: E. faecium ATCC1858 (Vancomycin (Van) sensitive); settings: Table 3, Gram-positive aerobe
Experimental: as §1

[11] = system: S. mitis 39050149; settings: Table 3, Gram-positive aerobe
Experimental: as §1

[12] = system: S. pyogenes 37352281; settings: Table 3, Gram-positive aerobe
Experimental: as §1

[13] = system: S. agalactiae 31432663; settings: Table 3, Gram-positive aerobe
Experimental: as §1

[14] = system: E. faecium 31430797 (Van B resistant); settings: Table 3, Gram-positive aerobe
[15] = system: S. epidermidis 31435861 (Methicillin resistant); settings: Table 3, Gram-positive aerobe
[16] = system: S. pneumoniae 6883 (Penicillin resistant); settings: Table 3, Gram-positive aerobe
[17] = system: M. tuberculosis H37Rv; settings: Table 3, Mycobacteria
[18] = system: E. faecium 31152980 (Van A resistant); settings: Table 3, Gram-positive aerobe

`C/N=C(\NC)NCCCCCCCCCCCCCCC(=O)NC(C)C(=O)NC1CC2(CS/C=C\NC(=O)C(CO)NC(=O)C(CCC(N)=O)NC2=O)NC(=O)CNC(=O)C(CC(C)C)NC1=O` (stereo not drawn) [Compound A] was tested, and the “Minimal Inhibitory Concentration (MIC)” value [1] was no more than 0.15 µg/mL, the “Minimal Inhibitory Concentration (MIC)” value [2] was no more than 0.08 µg/mL and the “Minimal Inhibitory Concentration (MIC)” value [3] was no more than 0.04 µg/mL. For the same compound, the “Minimal Inhibitory Concentration (MIC)” value [4] was no more than 0.3 µg/mL.

`C/N=C(\NC)NCCCCCCCCCCCCCCCCC(=O)NC(C)C(=O)NC1CC2(CS/C=C\NC(=O)C(CO)NC(=O)C(CCC(N)=O)NC2=O)NC(=O)CNC(=O)C(CC(C)C)NC1=O` (stereo not drawn) [Compound C] showed an MIC [5] of no more than 0.25 µg/mL, an MIC [6] of no more than 0.25 µg/mL and an MIC [7] of no more than 0.125 µg/mL. For the same compound, the MIC [8] was no more than 0.06 µg/mL, the MIC [9] was no more than 0.25 µg/mL and the MIC [10] was no more than 0.5 µg/mL. The MIC [11] was no more than 0.25 µg/mL, the “Minimal Inhibitory Concentration (MIC)” value [1] was no more than 0.08 µg/mL and the MIC [12] was no more than 0.5 µg/mL. For the same compound, the MIC [13] was no more than 0.25 µg/mL, the “Minimal Inhibitory Concentration (MIC)” value [2] was no more than 0.08 µg/mL and the MIC [14] was no more than 0.25 µg/mL. For the same compound, the MIC [15] was no more than 0.25 µg/mL, the MIC [16] was no more than 0.125 µg/mL and the “Minimal Inhibitory Concentration (MIC)” value [3] was no more than 0.04 µg/mL. The MIC ([3]; Table 3, Gram-positive aerobe, S. aureus ATCC13709, Methicillin sensitive) was no more than 0.04 µg/mL, the MIC [17] was no more than 1 µg/mL and the “Minimal Inhibitory Concentration (MIC)” value [4] was no more than 0.3 µg/mL. The MIC ([4]; Table 3, Gram-positive aerobe, S. aureus ATCC1683, Methicillin resistant) was no more than 0.3 µg/mL and the MIC [18] was no more than 0.25 µg/mL.
